Where two headings read alike, the source gives them in different places.
Tests used:
[1] = target: T1, GKRP (Glucokinase Regulatory Protein) with human His-hepatic GK (Homo sapiens, UniProt Q14397); assay: biochemical
T1 sequence (Q14397 1-625): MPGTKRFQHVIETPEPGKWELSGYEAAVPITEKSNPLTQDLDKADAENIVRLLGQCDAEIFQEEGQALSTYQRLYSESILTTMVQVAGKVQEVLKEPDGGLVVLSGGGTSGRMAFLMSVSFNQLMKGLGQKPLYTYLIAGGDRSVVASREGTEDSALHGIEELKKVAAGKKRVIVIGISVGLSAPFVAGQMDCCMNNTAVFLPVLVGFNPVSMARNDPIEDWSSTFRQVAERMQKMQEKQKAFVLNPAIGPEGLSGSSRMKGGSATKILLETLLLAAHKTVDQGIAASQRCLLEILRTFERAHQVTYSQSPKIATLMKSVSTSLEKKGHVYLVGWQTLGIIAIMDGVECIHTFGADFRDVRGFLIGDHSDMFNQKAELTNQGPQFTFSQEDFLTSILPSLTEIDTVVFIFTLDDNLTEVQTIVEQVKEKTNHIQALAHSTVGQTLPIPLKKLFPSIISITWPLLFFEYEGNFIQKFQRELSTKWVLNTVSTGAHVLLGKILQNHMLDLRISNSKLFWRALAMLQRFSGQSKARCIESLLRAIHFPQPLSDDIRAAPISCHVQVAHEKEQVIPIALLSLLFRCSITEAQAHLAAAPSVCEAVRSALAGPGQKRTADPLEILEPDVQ
Procedure, shortened: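 Product formation, 13C-glucose-6-phosphate from 13C-glucose, was measured directly by LC MS/MS after acetonitrile quench. The GK reaction ran 30 min at room temperature in Tris pH 7.5 buffer with 4 mM MgCl2 and 6% DMSO. The 5× enzyme stock was 30 nM His-tagged human hepatic glucokinase.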

[2] = target: T2, interaction between glucokinase (GK) and glucokinase regulatory protein (GKRP) (Homo sapiens, UniProt Q14397); assay: biochemical; type: binding
T2 sequence (Q14397 1-625): T1 sequence (Q14397 1-625)
Procedure, shortened: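 Measures direct GK–GKRP binding in 20 mM Tris pH 7.5 containing 1 μM sorbitol-6-phosphate, 0.05% BSA and 1 mM DTT. Compound and avi-tagged GKRP sit 20 min at room temperature before GK-fluorescein addition (6 nM in the added buffer); read after 2 h dark incubation at room temperature.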

[3] = 13C-glucose-6-phosphate formation, 280 nM GKRP (10×), 30 nM GK (5×), read-out: GK-GKRP EC50 (LC MS/MS-2)
[4] = avi-tagged GKRP, GK-fluorescein, AlphaScreen beads, read-out: GK-GKRP IC50 (Binding)

| SMILES | EC50 [1, 3] | IC50 [2, 4] | EC50 ([1]; GK-GKRP EC50 (LC MS/MS-2)) | IC50 ([2]; GK-GKRP IC50 (Binding)) | EC50 ([1]; GK-GKRP EC50 (LC MS/MS-2), 13C-glucose-6-phosphate formation, 280 nM GKRP (10×), 30 nM GK (5×)) |
| --- | --- | --- | --- | --- | --- |
| CC1(COC[C@H]2CN(S(=O)(=O)c3cccs3)CCN2c2ccc(C(C)(O)C(F)(F)F)cc2)COC1 (mixture of isomers) [Example 117, 1,1,1-trifluoro-2-(4-((2R)-2-(((3-methyl-3-oxetanyl)methoxy)methyl)-4-(2-thiophenylsulfonyl)-1-piperazinyl)phenyl)-2-propanol] | 463 nM | 467 nM | – | – | – |
| CC(C)C1C(=O)NCCN1C[C@H]1CN(S(=O)(=O)c2cccs2)CCN1c1ccc(C(C)(O)C(F)(F)F)cc1 (single isomer, unassigned) [Example 181 Peak #1] | 63 nM | 43 nM | – | – | – |
| CC(O)(c1ccc(N2CCN(S(=O)(=O)c3cccs3)C[C@@H]2CN2CCC[C@H](O)C2)cc1)C(F)(F)F (mixture of isomers) [Example 145, (3S)-1-(((2S)-4-(2-thiophenylsulfonyl)-1-(4-(2,2,2-trifluoro-1-hydroxy-1-methylethyl)phenyl)-2-piperazinyl)methyl)-3-piperidinol] | 880 nM | 628 nM | – | – | – |
| CN(C[C@H]1CN(S(=O)(=O)c2cccs2)CCN1c1ccc(C(C)(O)C(F)(F)F)cc1)S(C)(=O)=O (mixture of isomers) [Example 208, N-methyl-N-(((2S)-4-(2-thiophenylsulfonyl)-1-(4-(2,2,2-trifluoro-1-hydroxy-1-methylethyl)phenyl)-2-piperazinyl)methyl)methane sulfonamide] | 234 nM | 112 nM | – | – | – |
| CC(O)(c1ccc(N2CCN(S(=O)(=O)c3cccs3)C[C@@H]2CN2C3COCC2C(O)C3)cc1)C(F)(F)F (single isomer, unassigned) [Example 78 Peak #4] | 46 nM | 40 nM | – | – | – |
| CC(O)(c1ccc(N2CCN(S(=O)(=O)c3cccs3)C[C@@H]2CN2C3COCC2C(O)C3)cc1)C(F)(F)F (stereo partly drawn) [Example 77, 8-(((2S)-4-(2-thiophenylsulfonyl)-1-(4-(2,2,2-trifluoro-1-hydroxy-1-methylethyl)phenyl)-2-piperazinyl)methyl)-3-oxa-8-azabicyclo[3.2.1]octan-6-ol (endo)] | 31 nM | 28 nM | – | – | – |
| CC(O)(c1ccc(N2CCN(S(=O)(=O)c3cccs3)C[C@@H]2CN2[C@@H]3COC[C@H]2CC(=O)C3)cc1)C(F)(F)F (single isomer, unassigned) [Example 106 Peak#1] | 88 nM | 52 nM | – | – | – |
| O=S(=O)(c1cccs1)N1CCN(c2ncc(C(O)(C(F)(F)F)C(F)(F)F)cn2)[C@@H](CN2C3COCC2C(O)C3)C1 (single isomer, unassigned) [Example 79 Peak #2] | 73 nM | 32 nM | – | – | – |
| CC(O)(c1ccc(N2CCN(S(=O)(=O)c3cccs3)C[C@@H]2CN2CCOCC2CNS(C)(=O)=O)cc1)C(F)(F)F (single isomer, unassigned) [Example 112 Peak #2] | – | – | 332 nM | 210 nM | – |
| C[C@H]1CN(S(=O)(=O)c2ccc(N)nc2)CCN1c1ncc(C(O)(C(F)(F)F)C(F)(F)F)cn1 [Example 93, 2-(2-((2S)-4-((6-amino-3-pyridinyl)sulfonyl)-2-methyl-1-piperazinyl)-5-pyrimidinyl)-1,1,1,3,3,3-hexafluoro-2-propanol] | 196 nM | 190 nM | – | – | – |
| CC(O)(c1ccc(N2CCN(S(=O)(=O)c3cccs3)CC2CN2C3COCC2C(O)C3)cc1)C(F)(F)F (single isomer, unassigned) [Example 77 Peak #2] | 19 nM | 11 nM | – | – | – |
| CC1(C)C(=O)NCCN1C[C@H]1CN(S(=O)(=O)c2cccs2)CCN1c1ccc(C(C)(O)C(F)(F)F)cc1 (single isomer, unassigned) [Example 180 Peak #1] | 40 nM | 11 nM | – | – | – |
| CC1(C)C(=O)NC(=O)N1C[C@H]1CN(S(=O)(=O)c2cccs2)CCN1c1ccc(C(C)(O)C(F)(F)F)cc1 (mixture of isomers) [Example 228, 5,5-dimethyl-1-(((2S)-4-(2-thiophenylsulfonyl)-1-(4-(2,2,2-trifluoro-1-hydroxy-1-methylethyl)phenyl)-2-piperazinyl)methyl)-2,4-imidazolidinedione] | 312 nM | 151 nM | – | – | – |
| CC(=O)N(C[C@H]1CN(S(=O)(=O)c2cccs2)CCN1c1ccc(C(C)(O)C(F)(F)F)cc1)c1ccccc1 (mixture of isomers) [Example 224, N-phenyl-N-(((2S)-4-(2-thiophenylsulfonyl)-1-(4-(2,2,2-trifluoro-1-hydroxy-1-methylethyl)phenyl)-2-piperazinyl)methyl)acetamide] | 27 nM | 8 nM | – | – | – |
| CC(O)(c1ccc(N2CCN(S(=O)(=O)c3cccs3)C[C@@H]2CNS(=O)(=O)c2ccccc2)cc1)C(F)(F)F (mixture of isomers) [Example 193, N-(((2S)-4-(2-thiophenylsulfonyl)-1-(4-(2,2,2-trifluoro-1-hydroxy-1-methylethyl)phenyl)-2-piperazinyl)methyl)benzenesulfonamide] | – | 284 nM | – | – | 374 nM |
| Cn1cnc(COC[C@H]2CN(S(=O)(=O)c3cccs3)CCN2c2ccc(C(C)(O)C(F)(F)F)cc2)c1 (mixture of isomers) [Example 119, 1,1,1-trifluoro-2-(4-((2R)-2-(((1-methyl-1H-imidazol-4-yl)methoxy)methyl)-4-(2-thiophenylsulfonyl)-1-piperazinyl)phenyl)-2-propanol] | 169 nM | 392 nM | – | – | – |
| CC(O)(c1ccc(N2CCN(S(=O)(=O)c3cccs3)C[C@@H]2CN2C[C@H]3COC[C@H]3C2)cc1)C(F)(F)F (stereo partly drawn) [Example 123, 1,1,1-trifluoro-2-(4-((2S)-2-((3aR,6aS)-tetrahydro-1H-furo[3,4-c]pyrrol-5(3H)-ylmethyl)-4-(2-thiophenylsulfonyl)-1-piperazinyl)phenyl)-2-propanol] | – | – | 731 nM | 671 nM | – |
| CC(O)(c1ccc(N2CCN(S(=O)(=O)c3cccs3)C[C@@H]2CN2CCOC[C@H]2CO)cc1)C(F)(F)F (single isomer, unassigned) [Example 110 Peak #1] | – | – | 156 nM | 101 nM | – |
| Nc1ccc(S(=O)(=O)N2CCN(c3ccc(C(O)(C(F)(F)F)C(F)(F)F)cc3)CC2)s1 [Example 88, 2-(4-(4-((5-amino-2-thiophenyl)sulfonyl)-1-piperazinyl)phenyl)-1,1,1,3,3,3-hexafluoro-2-propanol] | 150 nM | 302 nM | – | – | – |
| CC(C)C1C(=O)NCCN1C[C@H]1CN(S(=O)(=O)c2cccs2)CCN1c1ncc(C(O)(C(F)(F)F)C(F)(F)F)cn1 (mixture of isomers) [Example 185, 3-(1-methylethyl)-4-(((2S)-4-(2-thiophenylsulfonyl)-1-(5-(2,2,2-trifluoro-1-hydroxy-1-(trifluoromethyl)ethyl)-2-pyrimidinyl)-2-piperazinyl)methyl)-2-piperazinone] | 16 nM | 1 nM | – | – | – |
| CCC1COCCN1C[C@H]1CN(S(=O)(=O)c2cccs2)CCN1c1ccc(C(C)(O)C(F)(F)F)cc1 (mixture of isomers) [Example 143, 2-(4-((2S)-2-((3-ethyl-4-morpholinyl)methyl)-4-(2-thiophenylsulfonyl)-1-piperazinyl)phenyl)-1,1,1-trifluoro-2-propanol] | 36 nM | 80 nM | – | – | – |
